From US20090264383A1, “Inhibitor of Adenylyl Cyclase for Treating a Disorder of the Circadian Rhythm” (Medical Research Council, priority 2006, published 2009)
Entries after “also recorded” stand apart in the source; their conditions may differ.

Experiments:
[1] = Water solubility; assay type: physicochemical
[2] = compared with THFA; cited from earlier work
[3] = test system: organotypic SCN slices; experiment: Bioluminescence recording of circadian gene expression in organotypic SCN slices (mPer1::luc / PER2::LUC); assay type: cell-based, mice
Procedure: (§1) Per1::luciferase and; Per2-luc transgenic mice were used. For organotypic slice culture, brains were removed from pups 5-10 days old and sectioned at 300 um with a McIlwain “Tissue Chopper.” Slices were sorted and trimmed to contain principally SCN tissue and placed onto a Millipore membrane insert (PICMORG) for culture at 37° C. in 5% CO2 as described previously (Gainer et al, 1998).
Recordings of luciferase activity from organotypic slices of SCN or peripheral tissues were made from 5-7 day old pups from PER2::LUC and, Per1::LUC mice using either photomultiplier assemblies for whole tissue emission or CCD camera for single SCN cell imaging (Hamamatsu Photonics Ltd, U.K.) as described May Wood et al 2006 Curr. Biol. Vol. 16 pp 599-605. cAMP-ELISA kit was purchased from R&D systems (Wiesbaden, Germany). NIH 3T3 cells were cultured as described (Kume et al 1999 Cell Vol 98 pp 193-205) and transfected using Genejuice (Novagen, San Diego, Calif.). […] Drugs were solubilized in medium or dimethylsulfoxide (DMSO) to make stock solutions 50-1000× the working solutions. [DMSO] was never greater than 0.4%. RNA-interference against Epac1 and Epac 2 used pre-validated sequences as instructed (Validated Stealth RNAi, Invitrogen, CA). Western Blots were performed as Reddy et al (2006 Curr. Biol. Vol 16 oo 1107-15). Behavioural rhythms, recorded by running wheel and passive infra-red movement detectors, were analysed in Clocklab (Actimetrics, Evanston Ill.). Central cannulae directed stereotaxically at the SCN and sub-cutaneous minipumps (Alzet® model 1002 pump and brain infusion kit II) for drug infusion were fitted as instructed (Durect Corp. Cupertino, Calif.).
Statistical analysis was performed using Prism GraphPad™ and Statview™. Periods were calculated over ≧3 days recoding For comparative purposes, transcriptional amplitude from PMT recordings was calculated as 100× (post-treatment emission peak-trough/pre-treatment peak-trough). In all cases error bars indicate SEM about the mean where n≧3.

[4] = test system: Slices/3T3 cells/other tissues; conditions: 10 mM LiCl2 (slices); 2 mM THFA (slices/3T3 cells/other tissues)
Procedure: as §1

[5] = target: T1, inositol monophosphatase (Homo sapiens, UniProt P29218); conditions: cited from earlier work
T1 sequence (P29218 1-277): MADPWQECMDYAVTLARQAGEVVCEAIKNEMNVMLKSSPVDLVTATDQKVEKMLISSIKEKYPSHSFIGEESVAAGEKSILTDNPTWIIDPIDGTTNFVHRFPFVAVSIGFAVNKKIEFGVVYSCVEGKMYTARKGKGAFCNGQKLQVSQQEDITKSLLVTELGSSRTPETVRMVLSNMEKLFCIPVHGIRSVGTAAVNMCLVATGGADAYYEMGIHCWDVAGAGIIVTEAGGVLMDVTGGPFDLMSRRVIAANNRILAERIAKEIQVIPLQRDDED

[6] = target: T2, bisphosphate nucleotidase (Homo sapiens, UniProt O95861); conditions: cited from earlier work
T2 sequence (O95861 1-308): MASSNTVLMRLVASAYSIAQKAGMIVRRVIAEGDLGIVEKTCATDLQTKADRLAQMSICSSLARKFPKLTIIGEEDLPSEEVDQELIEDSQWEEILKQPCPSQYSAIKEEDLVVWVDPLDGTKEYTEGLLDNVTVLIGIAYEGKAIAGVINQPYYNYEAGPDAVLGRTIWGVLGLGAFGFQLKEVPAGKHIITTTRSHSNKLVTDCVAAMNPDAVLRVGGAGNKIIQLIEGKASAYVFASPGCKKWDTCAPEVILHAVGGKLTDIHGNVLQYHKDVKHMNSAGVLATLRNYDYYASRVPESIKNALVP

[7] = target: T3, inositol polyphosphate 1-phosphatase (Homo sapiens, UniProt P49441); conditions: cited from earlier work
T3 sequence (P49441 1-399): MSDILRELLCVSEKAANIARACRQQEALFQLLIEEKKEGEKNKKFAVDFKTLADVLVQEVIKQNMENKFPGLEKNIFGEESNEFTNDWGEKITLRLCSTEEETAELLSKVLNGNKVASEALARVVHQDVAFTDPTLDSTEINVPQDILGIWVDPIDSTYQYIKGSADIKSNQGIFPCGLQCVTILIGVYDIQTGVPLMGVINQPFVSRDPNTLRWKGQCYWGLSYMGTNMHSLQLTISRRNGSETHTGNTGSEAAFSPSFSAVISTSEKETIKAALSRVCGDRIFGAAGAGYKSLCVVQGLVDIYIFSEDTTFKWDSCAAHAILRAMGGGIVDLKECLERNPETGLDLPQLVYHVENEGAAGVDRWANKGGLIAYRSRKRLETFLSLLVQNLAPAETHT

[8] = 1 mM lithium final concentration in human serum; cited from earlier work

| SMILES | water solubility [1] | solubility ([1]; water, read-out: water soluble up to) [mM] | metabolic and chemical stability [2] | effect on circadian period ([3]; wild-type mPer1::luc / PER2::LUC SCN slices) | appearance of slices / cells / tissues [4] | EC50 [5] [µM] | EC50 [6] [µM] | EC50 [7] [µM] | toxicity [8] | increase in SCN period in vitro ([3]; 10 mM lithium) [h] | circadian period ([3]; lithium treatment, organotypic slices, concentration not given) | increase in circadian period ([3]; lithium, organotypic tissue extracts) [h] | circadian period ([3]; slices in 10 mM lithium) [h] |
| --- | --- | --- | --- | --- | --- | --- | --- | --- | --- | --- | --- | --- | --- |
| Nc1ncnc2c1ncn2C1CCCC1 [9-(cyclopentyl)-adenine, 9-(Cyclopentyl)-adenine] | water soluble | ≥ 125 | greater metabolic and chemical stability than THFA | Reversible period lengthening; also recorded: Period was lengthened | – | – | – | – | – | – | – | – | – |
| [Li] [Lithium] | – | – | – | – | appear perfectly healthy | < 2000 | < 2000 | < 2000 | non-toxic | 2 to 3 | approximately 26 hours | ~2 | 26 |
